Experimental data from US9040568B2, “Pharmaceutical compositions for the treatment of pain” (AbbVie Inc., priority 2009, dated 2015).
Where a name gives a salt, the structure may show the parent alone. Values belong to the molecule of their own block, whether it stands above or below them.

How the values were obtained:
[1] = target: T1, human α4β2 nicotinic acetylcholine receptor subtype expressed in HEK-293 cells (Homo sapiens, UniProt P17787+P43681); experiment: Calcium flux assay (FLIPR) in HEK-293 cells expressing human α4β2; format: cell-based
T1 construct: expressed in transfected cells
Procedure: Calcium Flux Assays Using Cells Expressing nAChR Subtypes
Human embryonic kidney (HEK) 293 cells stably expressing human α4β2 or α3β4 combinations are grown to confluency in 162 cm^2 tissue culture flasks in DMEM media supplemented with 10% FBS and 25 μg/ml zeocin and 200 μg/ml hygromycin B. IMR-32 neuroblastoma cells (ATCC) are grown to confluency in 162 cm^2 tissue culture flasks in minimum essential media supplemented with 10% FBS and 1 mM sodium pyruvate, 1% non-essential amino acids and 1% antibiotic-antimycotic. The cells are then dissociated using cell dissociation buffer and 100-150 μl per well of 3.5×10^5 cells/ml cell suspension (˜50,000-100,000 cells/well) was plated into 96-well black plates (poly-D-lysine precoated) with clear bottom and maintained for 24-48 hours in a tissue culture incubator at 37° C. under an atmosphere of 5% CO2: 95% air. Other clonal cell lines or primary cell cultures that express endogenous α4* nicotinic receptors may also be used in this assay. Calcium flux was measured using calcium-3 assay kit (Molecular Devices, Sunnyvale, Calif.) or fluo-4 (Invitrogen). A stock solution of the dye was prepared by dissolving each vial supplied by the vendor in Hank's balanced salt solution buffer (HBSS) or 150 mM NMDG, 20 mM CaCl2 containing 10 mM HEPES, The stock solution was diluted 1:20 using the same buffer before use. The growth media was removed from the cells. The cells were loaded with 100 μl of the dye per well and incubated at room temperature for up to one hour for HEK 293 clonal stable cell lines or 30 minutes-45 minutes at 37° C. for IMR-32 cells Fluorescence measurements were read simultaneously from all the wells by a Fluorometic Imaging Plate Reader (FLIPR) at an excitation wavelength of 480 nm and an emission wavelength of 520 nm. Baseline fluorescence was measured for the first 6 seconds at which 3× concentrations of modulator/test compounds were added to the cell plate at 50 μl and incubated for five minutes. The fluorescence intensity was captured every second for the first 1 minute followed by every 5 seconds for an additional 4 minutes. This procedure was followed by 50 μl of 4× concentration of agonist and readings were taken for a period of 3-5 minutes as described above. Data was normalized to maximal responses and plotted as a function of concentration. The concentration dependence of changes fluorescence responses was fitted by nonlinear regression analysis (GraphPad Prism, San Diego, Calif.) to obtain EC50 values.
The positive allosteric modulator effects on α4β2nAChRs exemplified by 3-(3-pyridin-3-yl-1,2,4-oxadiazol-5-yl)benzonitrile (Compound 1) and 3,5-di(pyridin-3-yl)-1,2,4-oxadiazole (Compound 2) can be identified by measuring their potentiating effect to fluorescence changes in intracellular calcium using a fluorimetric plate reader. The potentiating effect of an α4β2 modulator on α4β2 receptor can also be illustrated by concentration responses to α4β2 agonists, for example 5-[(2R)-azetidin-2-ylmethoxy]-2-chloropyridine (Compound A) and (3R)-1-pyridin-3-ylpyrrolidin-3-amine (Compound B), in presence of a fixed concentration of PAM. […] In addition to compound A and B, other known nicotinic agonists can be left-shifted in presence of α4β2 PAM such as 3-(3-(pyridin-3-yl)-1,2,4-oxadiazol-5-yl)benzonitrile (Compound 1, FIG. 2C). […]

[2] = system: nerve injury induced mechanical allodynia; experiment: Chung model of neuropathic pain (L5-L6 spinal nerve ligation, tactile allodynia, von Frey); format: in vivo, rat
Procedure: To assess whether α4β2 PAM can increase antinociceptive responses of agonists in vivo, the following study was conducted. The materials and methods used to accomplish the study follow.
Male Sprague-Dawley rats (Charles River, Wilmington, Mass.) weighing 120-150 grams at time of surgery were utilized. These animals were group housed in AAALAC approved facilities at Abbott Laboratories in a temperature-regulated environment with lights on between 0700 and 2000 hours. Food and water was available ad libitum except during testing. All animal handling and experimental protocols were approved by an institutional animal care and use committee (IACUC). All experiments were performed during the light cycle.
5[(2R)-Azetidin-2-ylmethoxy]-2-chloropyridine (Compound A, 1-100 nmol/kg) and 3-(3-pyridin-3-yl)-1,2,4-oxadiazol-5-yl)benzonitrile (α4β2 PAM Compound 1, 1-35 μmol/kg, i.p.) was used. Compound A and D was prepared in saline and injected in solution in a volume of 2 ml/kg body weight 30 minutes before behavioral evaluation. Compound 1,3-(3-(pyridin-3-yl)-1,2,4-oxadiazol-5-yl)benzonitrile, was prepared in 30% hydroxybetacyclodextrin and injected in solution in a volume of 4 ml/kg body weight immediately before Compound A. For studies with Compound D, the doses tested ranged from 0.3-30 μmol/kg i.p.
To produce neuropathic pain, tight ligation of the L5-L6 spinal nerves was performed. As previously described in detail by Kim and Chung (Kim S H and Chung J M (1992), Pain 50: 355), following sterilization procedures, a 1.5 cm incision was made dorsal to the lumbosacral plexus. The paraspinal muscles (left side) were separated from the spinous processes, the L5 and L6 spinal nerves isolated, and tightly ligated with 3-0 silk thread. Following hemostasis, the wound was sutured and coated with antibiotic ointment. The rats were allowed to recover and then placed in a cage with soft bedding for 7-14 days before behavioral testing for mechanical allodynia.
Tactile allodynia was measured using calibrated (force; g) von Frey filaments (Stoelting, Wood Dale, Ill.). Briefly, rats were placed into individual plexiglass containers and allowed to acclimate for 15-20 minutes before testing. Withdrawal threshold was determined by increasing and decreasing stimulus intensity and estimated using a Dixon non-parametric test (Chaplan et al., 1994; Chaplan S R, Bach F W, Pogrel J W, Chung J M and Yaksh T L (1994) J Neurosci Methods 53:55-63). Only rats with threshold scores<4.5 g were considered allodynic and utilized in further testing. A percent of maximal possible effect (% M.P.E.) of the tested compounds was calculated according to the formula: ([post-drug threshold]-[baseline threshold])/([maximum threshold]-[baseline threshold])×100%, where maximum threshold was equal to 15 g.
Analysis of the in vivo data was carried out using analysis of variance. Where appropriate, Bonferroni's Multiple Comparison Test was used for post-hoc analysis. The level of significance was set at p less than 0.05. Data are presented as mean±S.E.M.

[3] = target: α4β2 nAChR (UniProt P09483+P12390); experiment: [^3H]-cytisine binding assay
Description: One manner for characterizing α4β2 receptor ligands is by a binding assay. […] The [^3H]-cytisine binding assays have been well reported; however, further details for carrying out the assays can be obtained in International Publication No. WO 99/32480; U.S. Pat. Nos. 5,948,793 and 5,914,328; WO 2004/018607; U.S. Pat. No. 6,809,105; WO 00/71534; and U.S. Pat. No. 6,833,370.

[4] = target: T2, α4β2nAChR modulator site (Homo sapiens, UniProt P17787+P43681); experiment: [^3H]-POB binding, membrane enriched fractions from human cortex; conditions: saturation binding, human frontal cortex membranes, 4° C.
T2 construct: membrane enriched fractions from human cortex (ABS Inc., Wilmington, Del.); tissue ABS Inc., Wilmington, Del; host or cells: human cortex (frontal cortex) membrane enriched fractions
Procedure: In addition to the assays previously described for assessing nicotinic acetylcholine receptor positive allosteric modulators (fluoroscence-based measurements, electrophysiology measurements using Xenopus oocytes or cell lines), the receptor interactions of positive allosteric modulators at α4β2 nAChRs also can be evaluated according to the [^3H]-POB binding assay, which was performed as described below.
[^3H]-POB ([^3H]-3-(5-(pyridin-3-yl)-1,2,4-oxadiazol-3-yl)benzonitrile) binding to a α4β2nAChR modulator site was determined using membrane enriched fractions from human cortex (ABS Inc., Wilmington, Del.). […] Non-specific binding was determined in the presence of 30 μM unlabeled 3-(5-(pyridin-3-yl)-1,2,4-oxadiazol-3-yl)benzonitrile. Under these conditions, saturable binding of [^3H]-POB binding was measured in membrane enriched fractions from human frontal cortex (FIG. 10). […]
For use in concentration-inhibition assays, seven log-dilution concentrations of test compounds containing […] of protein, and 50 nM [^3H]-POB (16.4 Ci/mmol) were incubated in a final volume of 500 μL for 75 minutes at 4° C. in duplicate. Non-specific binding was determined in the presence of 30 μM 3-(5-(pyridin-3-yl)-1,2,4-oxadiazol-3-yl)benzonitrile. […] IC50 values were determined by nonlinear regression in Microsoft® Excel or Assay Explorer. […]

[5] = co-applied with the PAM Compound 1, α4β2 nAChRs

T1 sequence (P43681 29-627 limits assumed): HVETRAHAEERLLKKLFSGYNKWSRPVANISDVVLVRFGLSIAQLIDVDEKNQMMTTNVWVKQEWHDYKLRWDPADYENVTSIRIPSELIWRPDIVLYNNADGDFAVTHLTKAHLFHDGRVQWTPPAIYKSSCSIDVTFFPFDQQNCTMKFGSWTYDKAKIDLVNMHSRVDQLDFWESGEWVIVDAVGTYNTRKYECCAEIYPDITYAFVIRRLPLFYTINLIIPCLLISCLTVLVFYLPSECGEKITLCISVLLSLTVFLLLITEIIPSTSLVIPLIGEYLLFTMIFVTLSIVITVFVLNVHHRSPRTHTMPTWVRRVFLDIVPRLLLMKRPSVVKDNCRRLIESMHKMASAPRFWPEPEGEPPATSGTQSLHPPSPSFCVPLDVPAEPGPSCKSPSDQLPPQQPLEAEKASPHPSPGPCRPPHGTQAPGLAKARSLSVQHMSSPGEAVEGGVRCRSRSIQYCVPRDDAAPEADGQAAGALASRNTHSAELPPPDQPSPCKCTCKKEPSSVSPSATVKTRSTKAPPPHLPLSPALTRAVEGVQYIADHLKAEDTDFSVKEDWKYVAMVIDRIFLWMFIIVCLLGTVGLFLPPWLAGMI
T1 sequence (P17787 26-502): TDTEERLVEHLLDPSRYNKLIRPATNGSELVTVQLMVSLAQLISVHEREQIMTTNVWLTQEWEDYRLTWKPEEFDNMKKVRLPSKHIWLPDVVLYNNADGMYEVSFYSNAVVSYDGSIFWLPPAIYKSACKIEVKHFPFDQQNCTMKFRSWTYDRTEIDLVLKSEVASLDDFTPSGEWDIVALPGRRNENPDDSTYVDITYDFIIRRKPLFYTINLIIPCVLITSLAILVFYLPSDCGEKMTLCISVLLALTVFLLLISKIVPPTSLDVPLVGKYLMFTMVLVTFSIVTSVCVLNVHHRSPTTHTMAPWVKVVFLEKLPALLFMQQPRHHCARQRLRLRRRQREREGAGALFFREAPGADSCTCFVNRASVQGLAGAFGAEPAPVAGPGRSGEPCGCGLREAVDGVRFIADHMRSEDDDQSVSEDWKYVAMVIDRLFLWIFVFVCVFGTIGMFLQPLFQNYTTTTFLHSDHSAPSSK
T2 sequence (P43681 29-627 limits assumed): as the sequence (P43681 29-627 limits assumed) above
T2 sequence (P17787 26-502): as the sequence (P17787 26-502) above

calcium response [1, 5]: evoked robust responses | calcium response ([1]; ligand alone, α4β2 nAChRs): does not evoke a calcium response
Compound: Cc1ncccc1OC[C@@H]1CCCN1 [Compound C, 2-methyl-3-(2-(S)-pyrrolidinylmethoxy)pyridine]

Compound: Fc1ccc(-c2nc(-c3cncnc3)no2)cc1F [Example 101, 5-(3,4-difluorophenyl)-3-(pyrimidin-5-yl)-1,2,4-oxadiazole tosylate]
Activity (allosteric effects-potentiation of fluorescence responses) [1]: a (“a” denotes as activity range from 200-400%)

Compound: c1ccc2ncc(N3C[C@@H]4CN[C@@H]4C3)cc2c1 [Compound D, (1S,5S)-3-(3,6-diaza-bicyclo[3.2.0]hept-3-yl)-quinoline]
calcium response [1, 5]: evoked robust responses | calcium response ([1]; ligand alone, α4β2 nAChRs): does not evoke a response | efficacy in neuropathic pain ([2]; administered alone): ineffective in reversing neuropathic pain | efficacy in neuropathic pain ([2]; combined with the PAM (Compound 1)): significant efficacy can be realized | Ki [3]: 6 nM

Bmax [4]: 2900±500 fmol/mg protein
Compound: [3H]c1cncc(-c2nc(-c3cccc(C#N)c3)no2)c1 [[^3H]-POB, [^3H]-3-(5-(pyridin-3-yl)-1,2,4-oxadiazol-3-yl)benzonitrile]
